Measured values reported in patent US20210238138A1, “Method for improving nucleation of crystals from solution” (Université Libre de Bruxelles, priority 2018, published 2021).
In brackets after ≈: the same amount, converted by molar mass.

How the values were obtained:
[1] = Cooling crystallisation of Brivaracetam/IPAc in capillary tubing; type: physicochemical; settings: 7 m tubing; for Appearance of crystals: 30 mL/min, 1 restriction, bath 20° C., initial 45° C.
Method: For example, following tests were made on Brivaracetam/IPAc (IsoPropylAcetate) at different concentrations. Induction time (appearance of crystals) is shown in table 1 for different increasing concentrations at a crystallization temperature of 20° C. after flowing through the tube at 30 mL/min in a 7 m long tubing.
(so same overall supersaturation). The variation in crystal size is shown without and with a 5 cm long 500 μm restriction. “Needles and rods” indicate appearance of concurring crystallizations of the two possible crystal types of Brivaracetam. Therefore the method also influences selectivity for one single crystal form. In the case of Brivaracetam, rods are preferred.
The advantage of using restriction(s) has already been indicated in previous tables. A series of tests was also performed using identical conditions and only changing the number of identical restrictions. In table 3, the tests were performed with restrictions of 1 mm in length and having an inner diameter of 500 μm. Crystal length decreases drastically when placing more restrictions in series in the tubing line.
Also different geometries of restriction were tested on Brivaracetam/IPAc mixtures: different lengths and different inner diameters.
The crystallization temperature is controlled by a water bath containing about 5 L of water, temperature is monitored at all times by a thermocouple. This water is cooled by a 1 m long cupper serpentine plunged into the bath with cooling liquid flowing from and to a cryothermostat, the water bath itself is agitated with a magnetic bar stirrer. The internal volume of a 7 m long tubing of […] is about 22 mL. As this volume is 220 times smaller than the volume of the present water it is assumed that the water temperature remains within a 0.5° C. or smaller margin of the set temperature value.

[2] = Solubility of Brivaracetam in IPAc; settings: IPAc (isopropyl acetate), organic solvent or mixture
[3] = test 2: 600 mg/mL in IPAc, Tc 0° C., σ 11, Q 43 mL/min, no restriction
[4] = test 3: 600 mg/mL in IPAc, Tc 0° C., σ 11, Q 32 mL/min, no restriction
[5] = test 4: 600 mg/mL in IPAc, Tc 0° C., σ 11, Q 21 mL/min, no restriction
[6] = test 6: 600 mg/mL in IPAc, Tc 0° C., σ 11, Q 43 mL/min, restriction 5 cm long, 500 μm
[7] = test 7: 600 mg/mL in IPAc, Tc 0° C., σ 11, Q 32 mL/min, restriction 5 cm long, 500 μm
[8] = test 8: 600 mg/mL in IPAc, Tc 0° C., σ 11, Q 21 mL/min, restriction 5 cm long, 500 μm
[9] = test 9: 400 mg/mL in IPAc, Tc 10° C., σ 4.7, Q 30 mL/min, 0 restrictions
[10] = test 9 as listed in Table 4: 400 mg/mL in IPAc, Tc 10° C., σ 4.7, Q 30 mL/min, restriction none
[11] = test 10: 400 mg/mL in IPAc, Tc 10° C., σ 4.7, Q 30 mL/min, 1 restriction 1 mm long, 500 μm
[12] = test 11: 400 mg/mL in IPAc, Tc 10° C., σ 4.7, Q 30 mL/min, 1 restriction 1 mm long, 500 μm
[13] = test 12: 400 mg/mL in IPAc, Tc 10° C., σ 4.7, Q 30 mL/min, 2 restrictions 1 mm long, 500 μm
[14] = test 13: 400 mg/mL in IPAc, Tc 10° C., σ 4.7, Q 30 mL/min, 2 restrictions 1 mm long, 500 μm
[15] = test 14: 400 mg/mL in IPAc, Tc 10° C., σ 4.7, Q 30 mL/min, 3 restrictions 1 mm long, 500 μm
[16] = test 15: 400 mg/mL in IPAc, Tc 10° C., σ 4.7, Q 30 mL/min, 3 restrictions 1 mm long, 500 μm
[17] = test 16: 400 mg/mL in IPAc, Tc 10° C., σ 4.7, Q 30 mL/min, 4 restrictions 1 mm long, 500 μm
[18] = test 17: 400 mg/mL in IPAc, Tc 10° C., σ 4.7, Q 30 mL/min, one restriction length 5 cm, diameter 500 μm
[19] = test 18: 400 mg/mL in IPAc, Tc 10° C., σ 4.7, Q 30 mL/min, one restriction length 5 cm, diameter 750 μm
[20] = test 19: 400 mg/mL in IPAc, Tc 10° C., σ 4.7, Q 30 mL/min, one restriction length 20 cm, diameter 500 μm
[21] = test 20: 400 mg/mL in IPAc, Tc 10° C., σ 4.7, Q 30 mL/min, one restriction length 50 cm, diameter 500 μm
[22] = test 21: 400 mg/mL in IPAc, Tc 10° C., σ 4.7, Q 30 mL/min, one restriction length 100 cm, diameter 500 μm

Structure (SMILES): CCC[C@@H]1CC(=O)N([C@@H](CC)C(N)=O)C1 [Brivaracetam]
- Appearance of crystals ([1]; 150 mg/mL in IPAc, supersaturation 0.09): None
- Appearance of crystals ([1]; 200 mg/mL in IPAc, supersaturation 0.47): None
- Appearance of crystals ([1]; 250 mg/mL in IPAc, supersaturation 0.83): 20 h
- Appearance of crystals ([1]; 300 mg/mL in IPAc, supersaturation 1.21): 2 h
- Appearance of crystals ([1]; 350 mg/mL in IPAc, supersaturation 1.57): 0.5 h
- Appearance of crystals ([1]; 400 mg/mL in IPAc, supersaturation 1.94): Immediate
- Appearance of crystals ([1]; 500 mg/mL in IPAc, supersaturation 2.68): Immediate
- Appearance of crystals ([1]; 600 mg/mL in IPAc, supersaturation 3.41): Immediate, white slurry
- Appearance of crystals ([1]; 800 mg/mL in IPAc, supersaturation 4.88): Immediate, white slurry
- Appearance crystals ([1]; test 1: 600 mg/mL in IPAc, Tc 0° C., σ 11, Q 54 mL/min, no restriction): Needles
- Appearance crystals [1, 3]: Rods
- Crystal length [1, 3]: 1020 ± 196 μm
- J (nucleation rate) [1, 3]: 2 100 mL^−1 · s^−1
- Appearance crystals [1, 4]: Rods
- Crystal length [1, 4]: 365 ± 106 μm
- J (nucleation rate) [1, 4]: 43 000 mL^−1 · s^−1
- Appearance crystals [1, 5]: Rods
- Crystal length [1, 5]: 258 ± 76 μm
- J (nucleation rate) [1, 5]: 121 000 mL^−1 · s^−1
- Appearance crystals ([1]; test 5: 600 mg/mL in IPAc, Tc 0° C., σ 11, Q 54 mL/min, restriction 5 cm long, 500 μm): Needles
- Appearance crystals [1, 6]: Rods
- Crystal length [1, 6]: 227 ± 64 μm
- J (nucleation rate) [1, 6]: 181 000 mL^−1 · s^−1
- Appearance crystals [1, 7]: Rods
- Crystal length [1, 7]: 121 ± 33 μm
- J (nucleation rate) [1, 7]: 1 200 000 mL^−1 · s^−1
- Appearance crystals [1, 8]: Rods
- Crystal length [1, 8]: 175 ± 100 μm
- J (nucleation rate) [1, 8]: 400 000 mL^−1 · s^−1
- Appearance crystals [1, 9]: Rods
- Crystal length [1, 9]: 195 μm
- J (nucleation rate) [1, 9]: 66 000 mL.^−1s^−1
- Appearance crystals [1, 10]: Rods
- Crystal length [1, 10]: 195 μm
- J (nucleation rate) [1, 10]: 131 000 mL^−1 · s^−1
- Appearance crystals [1, 11]: Rods
- Crystal length [1, 11]: 62 μm
- J (nucleation rate) [1, 11]: 3 085 000 mL.^−1s^−1
- Appearance crystals [1, 12]: Rods
- Crystal length [1, 12]: 62 μm
- J (nucleation rate) [1, 12]: 1 609 000 mL.^−1s^−1
- Appearance crystals [1, 13]: Rods
- Crystal length [1, 13]: 46 μm
- J (nucleation rate) [1, 13]: 8 500 000 mL.^−1s^−1
- Appearance crystals [1, 14]: Rods
- Crystal length [1, 14]: 43 μm
- J (nucleation rate) [1, 14]: 7 300 000 mL.^−1s^−1
- Appearance crystals [1, 15]: Rods
- Crystal length [1, 15]: 37 μm
- J (nucleation rate) [1, 15]: 12 000 000 mL.^−1s^−1
- Appearance crystals [1, 16]: Rods
- Crystal length [1, 16]: 40 μm
- J (nucleation rate) [1, 16]: 11 500 000 mL.^−1s^−1
- Appearance crystals [1, 17]: Rods
- Crystal length [1, 17]: 35 μm
- J (nucleation rate) [1, 17]: 9 700 000 mL.^−1s^−1
- Appearance crystals [1, 18]: Rods
- Crystal length [1, 18]: 143 μm
- J (nucleation rate) [1, 18]: 310 000 mL^−1 · s^−1
- Appearance crystals [1, 19]: Rods
- Crystal length [1, 19]: 120 μm
- J (nucleation rate) [1, 19]: 500 000 mL^−1 · s^−1
- Appearance crystals [1, 20]: Rods
- Crystal length [1, 20]: 95 μm
- J (nucleation rate) [1, 20]: 642 000 mL^−1 · s^−1
- Appearance crystals [1, 21]: Rods
- Crystal length [1, 21]: 207 μm
- J (nucleation rate) [1, 21]: 132 000 mL^−1 · s^−1
- Appearance crystals [1, 22]: Rods
- Crystal length [1, 22]: 211 μm
- J (nucleation rate) [1, 22]: 107 000 mL^−1 · s^−1
- solubility ([2]; 20 °C): 136 mg/mL (≈ 641 mM)
- solubility ([2]; 45 °C): ~1100 mg/mL (≈ 5180 mM)
